Test results published in patent US20240174622A1, “COMPOUND AND RADIOACTIVE LABELING COMPOUND” (NIHON MEDI-PHYSICS CO., LTD., priority 2021, published 2024).

Key:
[1] = compared with one hour after administration; EJNMMI Res 2012, J Nucl Med 2017; cited from earlier work
[2] = system: LNCaP tumor; experiment: Evaluation of suppressing tumor growth by 225Ac-labeling compound; assay type: in vivo, mouse; details: 20 kBq, tail vein
Experimental: [^225Ac]Ac-PSMA-DA1 (20 kBq) or [^225Ac]Ac-PSMA-DB (20 kBq) obtained by the above method was dissolved in 5% ethanol-containing acetate buffer (158 mM, pH 6.5, 100 μL), and the solution was administered to LNCaP tumor-transplanted mice from the tail vein (n=6 or 5). As the control group, 100 μL of 5% ethanol-containing acetate buffer (158 mM, pH 6.5) was administered to LNCaP tumor-transplanted mice from the tail vein (n=4).
After administration of the ^225Ac-labeling compound, the tumor volume and body weight were measured 2 times per week. The tumor volumes on the day when administration of ^225Ac-labeling compound was started were 75.3±26.0, 80.6±20.8, and 91.1±15.9 mm^3 for the groups administered [^225Ac]Ac-PSMA-DA1, [^225Ac]Ac-PSMA-DB, and 5% ethanol-containing acetate buffer, respectively.

[3] = system: LNCaP tumor; assay type: in vivo, mouse; details: for time after administration at which a significant difference in tumor volume from the saline-administered group was observed: 3.7 MBq, tail vein
Experimental: LNCaP tumor-implanted mice were administered saline solutions (100 μL) of [^90Y]Y-PSMA-DA1 (3.7 MBq) or [^90Y]Y-PSMA-DB (3.7 MBq) obtained by the method described above from the tail vein (n=7). As the control group, LNCaP tumor-implanted mice were administered 100 μL of saline from the tail vein (n=7). After administration of the ^90Y-labeling compound, the tumor volume and body weight were measured 3 times per week. The tumor volume was calculated based on the calculation formula “(tumor volume)=[(long side) x (short side) 2/2]”.

SMILES	body weight reduction [2]	tumor growth compared with the control group [2]	time after administration at which a significant difference in tumor volume from the saline-administered group was observed [3] [days]	further results
O=C([O-])CN(CCN(CC(=O)[O-])Cc1cc(CCC(=O)NCCCCCC(=O)NCCCC[C@H](NC(=O)N[C@@H](CCC(=O)O)C(=O)O)C(=O)O)ccc1[O-])Cc1cc(CCC(=O)O)ccc1[O-].[68Ga+3].[OH3+] [[^68Ga]Ga-PSMA-11]	–	–	–	kidney accumulation of known radiolabeled compound [1]: 139 % ID/g
O=C([O-])CN1CCN(C(CCC(=O)NCCCC[C@H](NC(=O)N[C@@H](CCC(=O)O)C(=O)O)C(=O)O)C(=O)[O-])CCN(CC(=O)[O-])CCN(C(CCC(=O)Nc2ccccc2)C(=O)[O-])CC1.[225Ac+3] (stereo partly drawn) [[^225Ac]Ac-PSMA-DB, reference compound]	no sign of recovery	significantly suppressed	–	–
O=C([O-])CN1CCN(C(CCC(=O)NCCCC[C@H](NC(=O)N[C@@H](CCC(=O)O)C(=O)O)C(=O)O)C(=O)[O-])CCN(CC(=O)[O-])CCN(C(CCC(=O)N[C@@H](CCCCNC(=O)CCCc2ccc(I)cc2)C(=O)O)C(=O)[O-])CC1.[90Y+3] (stereo partly drawn) [[^90Y]Y-PSMA-DA1]	–	–	9	body weight of the mice ([3]; mouse, in vivo): slightly reduced
O=C([O-])CN1CCN(C(CCC(=O)NCCCC[C@H](NC(=O)N[C@@H](CCC(=O)O)C(=O)O)C(=O)O)C(=O)[O-])CCN(CC(=O)[O-])CCN(C(CCC(=O)N[C@@H](CCCCNC(=O)CCCc2ccc(I)cc2)C(=O)O)C(=O)[O-])CC1.[225Ac+3] (stereo partly drawn) [[^225Ac]Ac-PSMA-DA1]	transient	significantly suppressed	–	growth suppression continuously observed until [2]: 6 weeks
O=C([O-])CN1CCN(C(CCC(=O)NCCCC[C@H](NC(=O)N[C@@H](CCC(=O)O)C(=O)O)C(=O)O)C(=O)[O-])CCN(CC(=O)[O-])CCN(C(CCC(=O)Nc2ccccc2)C(=O)[O-])CC1.[90Y+3] (stereo partly drawn) [[^90Y]Y-PSMA-DB, reference compound]	–	–	33	–
